# Values of other authors as cited in patent US6689394B2, “Removal of ectoparasites” (Schering-Plough HealthCare Products, Inc., priority 2001, dated 2004).
# Tested on: head lice
# Conditions: comparison of published results for topical pesticidal treatments
smiles,measurement,value
CC1(C)C(C=C(Cl)Cl)C1C(=O)OCc1cccc(Oc2ccccc2)c1 (stereo not shown) [Permethrin],evidence of clinical efficacy,sufficient evidence of efficacy
